Data reported in publication PMC11124822, “Discovery and Anticancer Screening of Novel Oxindole-Based Derivative Bearing Pyridyl Group as Potent and Selective Dual FLT3/CDK2 Kinase Inhibitor” (Pharmaceuticals, 2024).

Columns and labels:
CDK2 = biological target: T1, CDK2 (Homo sapiens, UniProt P24941); assay: Z'-LYTE kinase assay; format: biochemical; details: three separate experiments ± SD
T1 construct: purchased Invitrogen/Life Technologies
Protocol: (§1) The Z’-LYTE® technology, which relies on FRET (Fluorescence Resonance Energy Transfer) from Invitrogen/Life Technologies, was employed for this evaluation for all kinases except VEGFR-2. The VEGFR-2 kinase assay was conducted in a 96-well streptavidin-coated plate using a recombinant human VEGFR-2/KDR ELISA kit, following the manufacturer’s instructions. […] Statistical significance was assessed using one-way analysis of variance (ANOVA), followed by the Dunnett test; data are represented as means ± SD.

FLT3 = biological target: T2, FLT3 (Homo sapiens, UniProt P36888); assay: Z'-LYTE kinase assay; format: biochemical; details: three separate experiments ± SD
T2 construct: purchased Invitrogen/Life Technologies
T2 sequence (P36888 27-993): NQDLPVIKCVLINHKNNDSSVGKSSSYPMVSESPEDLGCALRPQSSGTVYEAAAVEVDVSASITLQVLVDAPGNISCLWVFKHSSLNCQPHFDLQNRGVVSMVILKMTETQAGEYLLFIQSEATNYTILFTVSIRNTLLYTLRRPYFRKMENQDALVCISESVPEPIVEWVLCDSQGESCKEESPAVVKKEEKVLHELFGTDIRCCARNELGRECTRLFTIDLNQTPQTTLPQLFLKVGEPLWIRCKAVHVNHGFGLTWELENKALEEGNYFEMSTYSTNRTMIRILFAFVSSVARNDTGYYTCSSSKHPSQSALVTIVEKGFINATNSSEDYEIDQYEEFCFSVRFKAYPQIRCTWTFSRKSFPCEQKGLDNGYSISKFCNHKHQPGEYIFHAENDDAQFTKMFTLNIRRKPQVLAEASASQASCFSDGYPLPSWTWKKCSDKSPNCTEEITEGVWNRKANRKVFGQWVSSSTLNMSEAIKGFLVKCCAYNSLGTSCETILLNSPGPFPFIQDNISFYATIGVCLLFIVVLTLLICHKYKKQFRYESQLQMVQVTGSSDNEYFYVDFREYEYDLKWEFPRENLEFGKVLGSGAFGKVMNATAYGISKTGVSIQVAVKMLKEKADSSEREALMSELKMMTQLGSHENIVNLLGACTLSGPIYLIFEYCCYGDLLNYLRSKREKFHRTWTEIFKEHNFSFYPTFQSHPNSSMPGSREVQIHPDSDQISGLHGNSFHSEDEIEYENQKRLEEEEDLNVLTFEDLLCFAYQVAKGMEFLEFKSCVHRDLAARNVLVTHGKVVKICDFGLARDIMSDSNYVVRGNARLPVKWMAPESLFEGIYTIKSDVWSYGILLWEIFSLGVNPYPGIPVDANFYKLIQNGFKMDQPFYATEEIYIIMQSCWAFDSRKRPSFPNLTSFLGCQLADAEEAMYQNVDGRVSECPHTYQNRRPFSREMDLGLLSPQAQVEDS
Protocol: as §1

MV4-11 cell xenografts = tested on: MV4-11 cell xenografts; parameters: method as in PMID 29357250; details: cited from earlier work
CDK4 = tested on: CDK4; parameters: method as in PMID 29357250; details: cited from earlier work
CDK6 = tested on: CDK6; parameters: method as in PMID 29357250; details: cited from earlier work
[1] = tested on: FLT3 ITD-mutated MV4-11 AML cells; parameters: method as in PMID 36403191, PMID 37446914; details: after 72 h; cited from earlier work
FLT3 kinase = biological target: FLT3 kinase; parameters: method as in PMID 36403191, PMID 37446914; details: cited from earlier work
[2] = tested on: MCF-12A normal breast cell line; parameters: method as in PMID 36844536; details: cited from earlier work
[3] = tested on: MCF-7 breast cancer cell line; parameters: method as in PMID 36844536; details: cited from earlier work

CN1CCN(Cc2ccc(NC(=O)c3n[nH]cc3Nc3ncnc4[nH]ccc34)cc2)CC1 [FN-1501, 4-((7H-Pyrrolo[2,3-d]pyrimidin-4-yl)amino)-N-(4-((4-methylpiperazin-1-yl)methyl)phenyl)-1H-pyrazole-3-carboxamide]
IC50 (CDK2): 1.99 ± 0.12 nM
IC50 (FLT3): 0.79 ± 0.08 nM
effectiveness in treating leukemia in mouse models (MV4-11 cell xenografts): remarkable effectiveness
IC50 (CDK4): 0.85 nM
IC50 (CDK6): 1.96 nM

COc1cc(C=C2C(=O)Nc3ccccc32)ccc1O [III]
IC50 [1]: 4300 nM
IC50 (FLT3 kinase): 2490 nM

COc1cc(C=C2C(=O)Nc3ccc(Cl)cc32)ccc1OCc1ccccn1 [IV]
impact on the MCF-12A normal breast cell line [2]: no impact
IC50 [3]: 17000 nM
